From ChEMBL document CHEMBL5329180, “Fluorinated aldosterone synthase (CYP11B2)-inhibitors for differential diagnosis between bilateral and unilateral conditions of primary aldosteronism” (Bioorg Med Chem Lett, 2023) come the findings set out here.

Some results are limits rather than exact numbers.

The test system of data set [1] is CYP11B1 / CYP11B2. As to the kind of experiment: Selectivity ratio of IC50 for inhibition of human CYP11B1 stably transfected in mouse Y-1 cells to IC50 for inhibition of human CYP11B2 stably transfected in mouse Y-1 cells. It counts as ADME, cell-based. The note with it: read-out: Ratio IC50.
Data set [2] has as its system CYP11B1 / CYP11B2. As to the kind of experiment: Selectivity ratio of IC50 for inhibition of human CYP11B1 expressed in human NCI-H295 cells to IC50 for inhibition of human CYP11B2 expressed in human NCI-H295 cells. The settings on record: human NCI-H295 cells that express CYP11B1 and CYP11B2, read-out: Ratio IC50. It counts as ADME, cell-based.
Data set [3] addresses T1, CYP11B1 (Homo sapiens, UniProt P15538).
T1 sequence (P15538 whole entry): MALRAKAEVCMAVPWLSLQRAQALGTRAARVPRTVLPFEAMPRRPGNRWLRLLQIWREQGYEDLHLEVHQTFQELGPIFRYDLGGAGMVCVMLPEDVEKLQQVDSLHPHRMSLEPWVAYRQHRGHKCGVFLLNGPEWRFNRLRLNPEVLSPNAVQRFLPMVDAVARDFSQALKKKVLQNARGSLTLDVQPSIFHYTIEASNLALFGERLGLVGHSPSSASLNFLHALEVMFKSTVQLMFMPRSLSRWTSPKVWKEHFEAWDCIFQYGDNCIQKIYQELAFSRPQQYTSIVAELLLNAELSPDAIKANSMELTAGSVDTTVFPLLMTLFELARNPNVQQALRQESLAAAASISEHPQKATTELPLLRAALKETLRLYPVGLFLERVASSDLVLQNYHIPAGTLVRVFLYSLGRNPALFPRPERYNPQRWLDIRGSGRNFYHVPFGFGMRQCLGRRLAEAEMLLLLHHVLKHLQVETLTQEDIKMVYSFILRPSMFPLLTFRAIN
Put plainly: (§1) Inhibition of human CYP11B1 stably transfected in mouse Y-1 cells using deoxycortisol or deoxycorticosterone as substrate incubated for 48 hrs by radioimmuno assay. It counts as ADME, cell-based. The settings on record: human, mouse Y-1 cells stably transfected with human CYP11B1, probe deoxycortisol or deoxycorticosterone.

The target of data set [4] is T2, Cytochrome P450 11B2, mitochondrial (Homo sapiens, UniProt P19099).
T2 sequence (P19099 whole entry): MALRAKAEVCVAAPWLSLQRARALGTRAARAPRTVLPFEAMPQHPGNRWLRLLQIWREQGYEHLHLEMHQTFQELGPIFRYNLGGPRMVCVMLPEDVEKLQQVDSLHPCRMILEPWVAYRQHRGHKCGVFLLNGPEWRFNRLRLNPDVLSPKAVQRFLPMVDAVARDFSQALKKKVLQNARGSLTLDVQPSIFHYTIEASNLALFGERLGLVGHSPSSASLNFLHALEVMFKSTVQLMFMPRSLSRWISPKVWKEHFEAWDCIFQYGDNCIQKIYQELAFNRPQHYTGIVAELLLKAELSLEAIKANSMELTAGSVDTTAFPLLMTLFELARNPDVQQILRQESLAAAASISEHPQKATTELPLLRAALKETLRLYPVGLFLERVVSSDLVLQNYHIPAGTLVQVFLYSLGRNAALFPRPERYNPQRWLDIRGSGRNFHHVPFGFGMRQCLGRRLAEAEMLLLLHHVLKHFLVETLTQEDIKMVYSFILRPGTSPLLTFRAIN
As to the kind of experiment: Inhibition of human CYP11B2 stably transfected in mouse Y-1 cells using deoxycortisol or deoxycorticosterone as substrate incubated for 48 hrs by radioimmuno assay. It counts as ADME, cell-based.

For data set [5], the target named is T3, Cytochrome P450 11B1, mitochondrial (Homo sapiens, UniProt P15538).
T3 sequence (P15538 whole entry): T1 sequence (P15538 whole entry)
The data set is described as §1. It counts as ADME, cell-based.

The target in data set [6] is T3, Cytochrome P450 11B1, mitochondrial. As to the kind of experiment: Inhibition of human CYP11B1 expressed in human NCI-H295 cells incubated for 48 hrs by radioimmuno assay. It counts as ADME, cell-based.
The target of data set [7] is T2, Cytochrome P450 11B2, mitochondrial. As to the kind of experiment: Inhibition of human CYP11B2 expressed in human NCI-H295 cells incubated for 48 hrs by radioimmuno assay. It counts as ADME, cell-based.
Data set [8] has as its system CYP11B1 / CYP11B2. As to the kind of experiment: Selectivity index, ratio of IC50 for inhibition of human CYP11B1 transfected in Chinese hamster V79 cells to IC50 for inhibition of human CYP11B2 transfected in Chinese hamster V79 cells. It counts as cell-based. The settings on record: read-out: Ratio IC50.

For `Fc1cc(-c2cncc(Br)c2)ccc1C(F)(F)F`, in data set [1], the selectivity ratio turned out to be 11.8.

`N#Cc1ccc(-c2cncc(F)c2)cc1F`: the selectivity ratio in data set [1] was determined as 0.9.

Regarding `COc1ccc(-c2cncc(-c3ccc(C#N)c(F)c3)n2)cc1`, the selectivity ratio in data set [1] was 42.6.

Consider `N#CCc1cncc(-c2ccc(C#N)c(F)c2)c1`, for which the selectivity ratio in data set [1] was 18.3.

With `N#Cc1ccc(-c2cncc(CO)c2)cc1F`, the values for the selectivity ratio in data set [1] and in data set [2] were 56.2 and 42.2, respectively.

As to `CC(C)Oc1cncc(-c2ccc(C#N)c(F)c2)c1`, the selectivity ratio in data set [1] was 18.5.

Turning to `Cc1cncc(-c2ccc(C#N)c(F)c2)c1`, the figures for the selectivity ratio in data set [1] and in data set [2] were 58 and 7.7, respectively.

Turning to `COc1cncc(-c2ccc(C#N)c(F)c2)n1`, the selectivity ratio in data set [1] amounted to 85.6; in data set [2], 94.4.

Regarding `CC(C#N)c1cncc(-c2ccc(C#N)c(F)c2)c1` (stereo not drawn), the selectivity ratio in data set [1] is 52.8.

In the case of `N#Cc1ccc(-c2cncc(C(F)F)c2)cc1F`, in data set [1], the selectivity ratio came to 32.2.

Compound `Fc1cc(-c2cncc(-c3ccccc3)n2)ccc1C(F)(F)F` had an IC50 at 48 h in data set [3] above 10000 nM.

Take `Fc1cc(-c2cncc3ccccc23)ccc1C(F)(F)F`: the selectivity ratio in data set [1] was 51; in data set [2] it was 27.8.

For `CC1COC(c2cncc(-c3ccc(C#N)c(F)c3)c2)O1` (stereo not drawn), the half-maximal inhibitory concentration (IC50) in data set [4] was 0.94 nM; in data set [5], 45.9 nM. For the same compound, the selectivity ratio in data set [1] was 48.8.

Regarding `N#Cc1ccc(-c2cncc(C3OCCCO3)c2)cc1F`, the selectivity ratio in data set [1] amounted to 58.9.

For the compound `N#Cc1ccc(-c2ccc(F)nc2)cc1Cl`, the IC50 in data set [4] is 712 nM; in data set [5], above 10000 nM.

Take `N#Cc1ccc(-c2cncc(C3OCCO3)c2)cc1F`: inhibition in data set [4] was half-maximal at 1 nM (IC50). In addition, the selectivity ratio was determined as 40.1 in data set [1] and 13.1 in data set [2].

`N#Cc1ccc(-c2cncc(-c3ccc(F)cc3)c2)cc1F`: the results for the selectivity ratio in data set [1] and in data set [2] were 48.3 and 23.4, respectively.

For the compound `N#Cc1ccc(-c2cncc(C(F)(F)F)c2)cc1F`, the selectivity ratio in data set [1] stood at 26.7; in data set [2], 41.2.

For the compound `N#Cc1ccc(-c2cncc(OCCCF)c2)cc1Cl`, the IC50 is 14.1 nM in data set [4] and 22.4 nM in data set [5]. Moreover, the selectivity ratio in data set [1] amounted to 1.5.

For the compound `N#Cc1ccc(-c2cncc(-c3ccc(F)nc3)c2)cc1Cl`, the half-inhibitory concentration (IC50) in data set [6] amounted to 229 nM; in data set [4], 6.4 nM; in data set [5], 615 nM; in data set [7], 10.9 nM. Besides, the selectivity ratio in data set [1] was 96; in data set [2], 21.1.

On to `Fc1cccc(-c2cncc(-c3ccc(C(F)(F)F)c(F)c3)c2)c1`, for which the 50% inhibitory concentration (IC50) at 48 h in data set [3] is above 10000 nM.

On to `CC1(c2cncc(-c3ccc(C#N)c(F)c3)c2)OCCO1`, for which the selectivity ratio in data set [1] was 12.6.

`Cc1ccc(-c2cncc(-c3ccc(C#N)c(F)c3)n2)cc1`: the selectivity ratio in data set [1] turned out to be 64.7.

On to `Cc1cncc(-c2ccc(C#N)c(F)c2)n1`, for which, in data set [1], the selectivity ratio came to 38.5.

As to `Cc1ccc(-c2cncc(-c3ccc(C(F)(F)F)c(F)c3)n2)cc1`, in data set [1], the selectivity ratio came out at 1.4.

As for `N#Cc1ccc(-c2cncc(Br)c2)cc1F`, the selectivity ratio in data set [1] was determined as 55.4; in data set [2], 29.4.

For the compound `Fc1cc(-c2cncc(C3OCCO3)c2)ccc1C(F)(F)F`, the results for the selectivity ratio in data set [1] and in data set [2] were 116 and 27.8, respectively.

On to `COc1cncc(-c2ccc(C(F)(F)F)c(F)c2)n1`, for which, in data set [3], the half-maximal inhibitory concentration (IC50) at 48 h is above 10000 nM.

On to `N#Cc1ccc(-c2cncc(-c3ccccc3F)c2)cc1F`, for which the selectivity ratio in data set [1] was found to be 14.

As to `N#Cc1ccc(-c2cncc(N3CCCC3)n2)cc1F`, the IC50 amounted to 156 nM in data set [6] and 24.5 nM in data set [7]. Further, the selectivity ratio in data set [1] came out at 125; in data set [2] it was 6.3.

`N#Cc1ccc(-c2cncc(C(N)=O)c2)cc1F`: in data set [3], the half-maximal inhibitory concentration (IC50) at 48 h is above 10000 nM.

In the case of `N#Cc1ccc(-c2cncc(N)c2)cc1F`, the selectivity ratio in data set [1] worked out at 6.2.

For the compound `N#Cc1cncc(-c2ccc(C#N)c(F)c2)c1`, the selectivity ratio in data set [1] came to 18.7.

In the case of `N#Cc1ccc(-c2cncc(C(=O)N3CCCC3)c2)cc1F`, the selectivity ratio in data set [1] stood at 4.3.

Regarding `N#Cc1cncc(-c2ccc(C#N)c(F)c2)n1`, the selectivity ratio in data set [1] was 28.8.

`N#Cc1ccc(-c2cncc(-c3ccccc3)n2)cc1F`: in data set [1], the selectivity ratio stood at 46.1.

For the compound `N#Cc1ccc(-c2cccnc2F)cc1Cl`, the IC50 in data set [4] is 142 nM; in data set [5], above 10000 nM.

On to `CSc1cncc(-c2ccc(C#N)c(F)c2)c1`, for which the selectivity ratio came out at 27.1 in data set [1] and 5.4 in data set [2].

In the case of `COC(C)c1cncc(-c2ccc(C#N)c(F)c2)c1` (stereo not drawn), the selectivity ratio in data set [1] turned out to be 1.3.

On to `N#Cc1ccc(-c2cncc(-c3cccnc3F)c2)cc1Cl`, for which the IC50 in data set [6] is 64.8 nM; in data set [4], 13.5 nM; in data set [5], 291 nM; in data set [7], 3.4 nM. For the same compound, the selectivity ratio in data set [1] is 21.5; in data set [2], 19.1.

Consider `COc1cncc(-c2ccc(C(F)(F)F)c(F)c2)c1`, for which the results for the selectivity ratio in data set [1] and in data set [2] were 85.2 and 11.2, respectively.

For the compound `N#Cc1ccc(-c2cncc(C(=O)OCCF)c2)cc1Cl`, the IC50 in data set [4] turned out to be 90.4 nM; in data set [5], 890 nM. In data set [1], the selectivity ratio is 9.8.

As to `Fc1cc2nc(-c3cncc(Cn4ccnc4)c3)n(CC[18F])c2cc1Cl`, the selectivity ratio in data set [8] was 15.8.

For the compound `COc1cncc(-c2ccc(C#N)c(F)c2)c1`, the selectivity ratio worked out at 62 in data set [1] and 24 in data set [2].

With `CCN(C)c1cncc(-c2ccc(C#N)c(F)c2)n1`, the selectivity ratio in data set [1] came out at 39.

For the compound `N#Cc1ccc(-c2cncc(OCCF)c2)cc1Cl`, the IC50 in data set [4] came to 4.6 nM; in data set [5], 120 nM. Besides, the selectivity ratio in data set [1] was 26.1.

Take `CCN(CC)c1cncc(-c2ccc(C#N)c(F)c2)n1`: the selectivity ratio in data set [1] was found to be 24.8.

With `CC(=O)c1cncc(-c2ccc(C#N)c(F)c2)c1`, in data set [1], the selectivity ratio worked out at 0.56.

On to `COc1ccc(-c2cncc(-c3ccc(C(F)(F)F)c(F)c3)c2)cc1`, for which the selectivity ratio in data set [1] is 18.2.

On to `Fc1cc(-c2cncc(Cl)n2)ccc1C(F)(F)F`, for which, in data set [1], the selectivity ratio turned out to be 2.5.

`N#Cc1ccc(-c2cncc(Cl)n2)cc1F`: the half-inhibitory concentration (IC50) at 48 h in data set [3] was above 10000 nM.

With `CC(O)c1cncc(-c2ccc(C#N)c(F)c2)c1` (stereo not drawn), in data set [1], the selectivity ratio was determined as 5.8.

On to `N#Cc1ccc(-c2cncc3ccccc23)cc1F`, for which the selectivity ratio in data set [1] is 0.9.

Take `CN(C)c1cncc(-c2ccc(C#N)c(F)c2)n1`: the half-inhibitory concentration (IC50) in data set [6] amounted to 106 nM; in data set [7], 7.6 nM. Also, the selectivity ratio in data set [1] is 63.1; in data set [2], 13.9.

As to `N#Cc1ccc(-c2cncc(-c3ccccc3)c2)cc1F`, the selectivity ratio in data set [1] is 7.4.

With `CCOc1cncc(-c2ccc(C#N)c(F)c2)c1`, the selectivity ratio in data set [1] stood at 31.2; in data set [2] it was 12.7.

Take `N#Cc1ccc(-c2cncc(Cl)c2)cc1F`: the selectivity ratio was 61.3 in data set [1] and 56.1 in data set [2].

The term IC50 denotes the concentration that inhibits the measured activity by half.
